Experiments:
hTRPV1 = hTRPV1 (Homo sapiens, UniProt Q8NER1); test: Patch clamp selectivity, hTRPV1; format: cell-based; conditions: hTRPV1 vs TRPA1
Experimental: (§1) Data for TRPA1 inhibition and the selectivity of TRPA1 inhibition was obtained by this method for the compound of Formula (Ia) and included in Table 1 and Table 2. All currents were recorded in whole-cell configuration using EPC-9 and EPC-10 amplifiers and Patchmaster software (HEKA). […] The standard pipette solution consisted of 140 mM CsAsp, 10 mM EGTA, 10 mM HEPES, 2.27 mM MgCl2, 1.91 mM CaCl2, 4 mM MgATP, and 0.1-0.3 mM Na2GTP, with pH adjusted to 7.2 with CsOH. In addition, a solution containing 145 mM CsCl, 10 mM HEPES, 10 mM EGTA and 1 mM MgCl2 (pH 7.2 adjusted with CsOH) can be used. The standard bath solution contained 150 mM NaCl, 10 mM HEPES, 10 mM glucose, 4.5 mM KCl, 1 mM EGTA, 3 mM MgCl2, with pH adjusted to 7.4 with NaOH. In some instances, 2 mM CaCl2 was added in place of EGTA and the concentration of MgCl2 was reduced to 1 mM.
(§2) Data were collected either by continuous recordings at −60 mV or by applying voltage ramps from a holding potential of 0 mV every 4 s. […] Inward and outward currents were analyzed from the ramps at −80 and 80 mV, respectively. […]
(§3) Solutions were switched using a gravity-fed continuous focal perfusion system. […] Temperatures were confirmed using a thermistor (Warner Instruments, TA-29), with temperatures at the recorded cell estimated to be within +/−2° C. of those reported. […]

healthy male volunteers = test: Single ascending dose Phase 1A study; format: in vivo, human; conditions: 6 ascending single doses, placebo-controlled
Excerpt: A randomized, double-blind, placebo-controlled, cross-over, single dose, safety, tolerability and pharmacokinetic study of 6 ascending doses of the compound of Formula (Ia) was undertaken in two cohorts of healthy male volunteers. A total of eighteen eligible healthy mail volunteers were recruited utilizing an alternating panel design. The first cohort of nine subjects (Cohort 1) was sequentially enrolled into 3 of 6 dosing periods (Dose Levels 1, 3, and 5). The remaining cohort of nine subjects (Cohort 2) was enrolled in the other 3 dosing periods (Dose Levels 2, 4, and 6). Within each dosing period, subjects were randomly assigned 2:1 to the compound of Formula (I) (n=6) or placebo (n=3). Each subject received one dose of placebo and two different doses of the compound of Formula (I) over the course of their participation in all three dosing periods. Subjects were equally randomized to one of 3 possible sequences, namely 1) placebo, active, active, 2) active, placebo, active, and 3) active, active, placebo.

hTRPM8 = hTRPM8 (Homo sapiens, UniProt Q7Z2W7); test: Patch clamp selectivity, hTRPM8; format: cell-based; conditions: hTRPM8 vs TRPA1
Experimental: as §1, §2, §3

hTRPV4 = hTRPV4 (Homo sapiens, UniProt Q9HBA0); test: Patch clamp selectivity, hTRPV4 (block); format: cell-based; conditions: hTRPV4 vs TRPA1
Experimental: as §1, §2, §3

[1] = system: CFA-induced cold allodynia; test: Complete Freund's Adjuvant (CFA) cold allodynia rodent pain model; format: in vivo, rat; conditions: in words
Experimental: The compound of Formula (Ia) is also active in rodent models of pain in vivo induced by cold allodynia following chronic Complete Freund's Adjuvant-induced inflammation, as described in Example 6. […] The compound of Formula (Ia), the comparator compound of Formula (II) and ketoprofen were tested by the CFA-induced pain test method reported in del Camino et al., J. Neurosci., 30(45):15165-15174, incorporated herein by reference in its entirety. Briefly, the hind paw is sensitized to cold temperature (allodynic), by administering 0.1 mL of Complete Freund's Adjuvant (CFA) is administered to the left hind paw. 2-3 days later, the time taken for the animal to lift its CFA-injected paw is recorded compared to its un-injected normal right hind paw. […] To avoid tissue damage the maximum cut-off time is 5 minutes. Animals that are allodynic (average PWL to the first three pain behaviors<150 seconds for the CFA-injected hind paw: ˜≧50% difference between the normal and CFA-injected paw) are included in the study and subsequently randomized across treatment groups. The following day, the animals are dosed under blinded conditions. Following the 1-2 hour pre-treatment time, the post-dose PWL readings are again taken. The efficacy of the drug treatment is assessed by comparing the PWL in the drug treatment animals to those animals that receive the vehicle.

dTRPA1 = dTRPA1 (Canis lupus familiaris, UniProt A0A8I3Q1Q7); test: Whole-cell patch clamp inhibition of dTRPA1; format: cell-based, Dog; conditions: dTRPA1, 10 micromolar AITC activation; read-out: IC50 Inward current
Experimental: as §1, §2, §3

hERG = hERG (Homo sapiens, UniProt Q12809); test: Patch clamp selectivity, hERG; format: cell-based; conditions: hERG vs TRPA1
Experimental: as §1, §2, §3

Sequence of dTRPA1 (A0A8I3Q1Q7 1-1118): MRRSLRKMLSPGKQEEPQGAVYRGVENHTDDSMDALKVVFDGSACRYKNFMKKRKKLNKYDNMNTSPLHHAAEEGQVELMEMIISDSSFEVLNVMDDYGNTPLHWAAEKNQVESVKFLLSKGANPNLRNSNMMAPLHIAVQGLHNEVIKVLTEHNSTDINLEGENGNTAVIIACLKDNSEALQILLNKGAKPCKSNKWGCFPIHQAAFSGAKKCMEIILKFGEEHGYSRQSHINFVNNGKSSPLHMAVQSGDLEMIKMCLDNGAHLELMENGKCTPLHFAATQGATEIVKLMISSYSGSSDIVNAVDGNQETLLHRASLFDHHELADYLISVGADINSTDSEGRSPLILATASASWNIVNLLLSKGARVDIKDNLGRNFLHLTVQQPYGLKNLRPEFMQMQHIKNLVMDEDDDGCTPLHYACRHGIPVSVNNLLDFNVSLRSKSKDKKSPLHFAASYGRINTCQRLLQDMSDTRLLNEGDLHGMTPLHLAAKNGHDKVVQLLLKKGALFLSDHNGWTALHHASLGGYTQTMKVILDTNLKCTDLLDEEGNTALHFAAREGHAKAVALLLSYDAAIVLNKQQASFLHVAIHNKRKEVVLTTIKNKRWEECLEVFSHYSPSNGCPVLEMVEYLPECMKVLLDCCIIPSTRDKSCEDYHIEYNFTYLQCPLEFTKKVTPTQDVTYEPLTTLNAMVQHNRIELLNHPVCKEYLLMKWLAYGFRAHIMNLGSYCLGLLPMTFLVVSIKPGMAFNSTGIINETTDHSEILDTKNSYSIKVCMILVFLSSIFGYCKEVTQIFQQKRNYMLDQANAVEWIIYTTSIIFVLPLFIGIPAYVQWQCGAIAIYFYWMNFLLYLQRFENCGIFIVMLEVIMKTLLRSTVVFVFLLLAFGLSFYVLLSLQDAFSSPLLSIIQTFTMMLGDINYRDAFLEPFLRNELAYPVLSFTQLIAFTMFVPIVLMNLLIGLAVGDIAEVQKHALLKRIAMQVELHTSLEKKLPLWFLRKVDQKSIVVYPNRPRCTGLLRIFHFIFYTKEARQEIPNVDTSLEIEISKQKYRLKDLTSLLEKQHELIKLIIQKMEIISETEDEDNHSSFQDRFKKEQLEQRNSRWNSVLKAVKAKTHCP
Sequence of hTRPV4 (Q9HBA0 whole entry): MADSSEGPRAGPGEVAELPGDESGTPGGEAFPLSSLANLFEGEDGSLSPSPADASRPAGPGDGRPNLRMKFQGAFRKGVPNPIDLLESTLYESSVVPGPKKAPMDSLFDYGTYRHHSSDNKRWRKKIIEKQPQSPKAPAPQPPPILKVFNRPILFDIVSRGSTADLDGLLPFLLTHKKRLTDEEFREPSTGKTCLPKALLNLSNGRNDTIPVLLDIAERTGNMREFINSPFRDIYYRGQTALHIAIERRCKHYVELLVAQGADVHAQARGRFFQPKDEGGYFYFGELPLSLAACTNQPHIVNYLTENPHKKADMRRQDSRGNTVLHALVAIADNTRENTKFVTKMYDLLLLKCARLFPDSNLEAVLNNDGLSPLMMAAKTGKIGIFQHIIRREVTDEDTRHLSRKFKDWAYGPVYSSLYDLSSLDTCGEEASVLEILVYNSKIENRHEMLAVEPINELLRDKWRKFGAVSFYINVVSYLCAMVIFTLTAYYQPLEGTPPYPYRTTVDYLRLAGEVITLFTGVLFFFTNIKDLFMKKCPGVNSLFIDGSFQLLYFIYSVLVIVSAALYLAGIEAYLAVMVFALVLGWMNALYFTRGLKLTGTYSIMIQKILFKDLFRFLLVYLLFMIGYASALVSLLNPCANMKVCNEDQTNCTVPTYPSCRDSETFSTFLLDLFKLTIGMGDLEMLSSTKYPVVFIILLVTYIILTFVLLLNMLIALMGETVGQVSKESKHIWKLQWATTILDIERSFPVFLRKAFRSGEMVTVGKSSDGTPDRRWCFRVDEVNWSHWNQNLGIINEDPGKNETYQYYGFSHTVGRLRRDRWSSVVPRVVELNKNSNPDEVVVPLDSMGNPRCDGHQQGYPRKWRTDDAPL
Sequence of hERG (Q12809 whole entry): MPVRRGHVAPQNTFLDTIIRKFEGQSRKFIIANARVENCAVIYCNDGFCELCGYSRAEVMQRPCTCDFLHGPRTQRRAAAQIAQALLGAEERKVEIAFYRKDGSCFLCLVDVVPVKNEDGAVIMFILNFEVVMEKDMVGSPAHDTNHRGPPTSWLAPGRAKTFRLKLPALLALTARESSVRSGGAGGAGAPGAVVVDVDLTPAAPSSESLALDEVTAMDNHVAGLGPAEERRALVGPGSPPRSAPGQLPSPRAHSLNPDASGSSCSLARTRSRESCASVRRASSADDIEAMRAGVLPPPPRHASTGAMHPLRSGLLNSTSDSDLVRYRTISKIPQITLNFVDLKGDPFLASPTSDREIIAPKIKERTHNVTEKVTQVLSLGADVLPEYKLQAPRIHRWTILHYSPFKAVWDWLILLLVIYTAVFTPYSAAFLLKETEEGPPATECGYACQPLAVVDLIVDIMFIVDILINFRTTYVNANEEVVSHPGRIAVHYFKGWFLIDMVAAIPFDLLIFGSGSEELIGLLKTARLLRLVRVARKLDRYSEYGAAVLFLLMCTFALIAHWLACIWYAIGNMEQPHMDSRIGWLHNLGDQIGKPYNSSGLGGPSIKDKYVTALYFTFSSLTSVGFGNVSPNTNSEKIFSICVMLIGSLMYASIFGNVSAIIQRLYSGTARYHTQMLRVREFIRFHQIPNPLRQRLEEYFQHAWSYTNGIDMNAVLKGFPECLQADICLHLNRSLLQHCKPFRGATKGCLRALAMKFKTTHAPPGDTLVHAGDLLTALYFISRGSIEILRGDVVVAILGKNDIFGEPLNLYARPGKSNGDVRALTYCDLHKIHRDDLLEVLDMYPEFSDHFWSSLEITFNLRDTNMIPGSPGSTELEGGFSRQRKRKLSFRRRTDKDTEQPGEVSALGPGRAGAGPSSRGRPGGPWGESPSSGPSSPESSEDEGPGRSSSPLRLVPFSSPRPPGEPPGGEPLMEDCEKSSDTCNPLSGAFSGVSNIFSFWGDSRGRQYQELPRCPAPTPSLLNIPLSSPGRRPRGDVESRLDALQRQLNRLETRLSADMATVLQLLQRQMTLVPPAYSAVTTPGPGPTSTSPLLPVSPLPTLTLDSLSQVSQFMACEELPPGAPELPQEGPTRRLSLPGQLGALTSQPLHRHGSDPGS
Sequence of hTRPM8 (Q7Z2W7 whole entry): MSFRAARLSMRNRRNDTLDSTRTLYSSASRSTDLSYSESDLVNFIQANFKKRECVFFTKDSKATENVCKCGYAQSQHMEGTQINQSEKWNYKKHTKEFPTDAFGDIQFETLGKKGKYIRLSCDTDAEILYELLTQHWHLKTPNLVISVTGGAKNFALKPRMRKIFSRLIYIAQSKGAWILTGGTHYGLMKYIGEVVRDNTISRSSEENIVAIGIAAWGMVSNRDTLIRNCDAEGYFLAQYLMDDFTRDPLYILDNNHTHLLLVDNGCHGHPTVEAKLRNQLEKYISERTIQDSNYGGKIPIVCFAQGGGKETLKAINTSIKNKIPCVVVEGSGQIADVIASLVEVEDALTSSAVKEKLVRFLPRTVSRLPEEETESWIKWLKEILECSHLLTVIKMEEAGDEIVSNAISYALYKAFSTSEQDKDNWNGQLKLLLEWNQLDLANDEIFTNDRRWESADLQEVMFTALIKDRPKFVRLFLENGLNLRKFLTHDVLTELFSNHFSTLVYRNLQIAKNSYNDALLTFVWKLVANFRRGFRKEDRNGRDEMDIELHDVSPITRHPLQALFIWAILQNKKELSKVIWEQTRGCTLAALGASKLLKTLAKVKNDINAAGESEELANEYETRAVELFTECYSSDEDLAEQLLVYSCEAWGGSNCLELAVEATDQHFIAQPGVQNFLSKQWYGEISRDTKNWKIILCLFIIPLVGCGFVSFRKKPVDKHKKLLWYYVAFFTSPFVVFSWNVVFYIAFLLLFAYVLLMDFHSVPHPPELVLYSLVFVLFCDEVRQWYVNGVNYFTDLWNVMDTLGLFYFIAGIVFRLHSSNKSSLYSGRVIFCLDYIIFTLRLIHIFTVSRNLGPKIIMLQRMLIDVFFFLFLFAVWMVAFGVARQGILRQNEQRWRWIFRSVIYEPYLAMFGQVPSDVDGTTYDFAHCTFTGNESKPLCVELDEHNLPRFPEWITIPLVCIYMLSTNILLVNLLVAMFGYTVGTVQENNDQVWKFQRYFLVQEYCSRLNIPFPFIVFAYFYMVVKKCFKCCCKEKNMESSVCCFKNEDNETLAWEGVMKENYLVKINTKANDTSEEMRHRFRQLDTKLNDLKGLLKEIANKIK
Sequence of hTRPV1 (Q8NER1 whole entry): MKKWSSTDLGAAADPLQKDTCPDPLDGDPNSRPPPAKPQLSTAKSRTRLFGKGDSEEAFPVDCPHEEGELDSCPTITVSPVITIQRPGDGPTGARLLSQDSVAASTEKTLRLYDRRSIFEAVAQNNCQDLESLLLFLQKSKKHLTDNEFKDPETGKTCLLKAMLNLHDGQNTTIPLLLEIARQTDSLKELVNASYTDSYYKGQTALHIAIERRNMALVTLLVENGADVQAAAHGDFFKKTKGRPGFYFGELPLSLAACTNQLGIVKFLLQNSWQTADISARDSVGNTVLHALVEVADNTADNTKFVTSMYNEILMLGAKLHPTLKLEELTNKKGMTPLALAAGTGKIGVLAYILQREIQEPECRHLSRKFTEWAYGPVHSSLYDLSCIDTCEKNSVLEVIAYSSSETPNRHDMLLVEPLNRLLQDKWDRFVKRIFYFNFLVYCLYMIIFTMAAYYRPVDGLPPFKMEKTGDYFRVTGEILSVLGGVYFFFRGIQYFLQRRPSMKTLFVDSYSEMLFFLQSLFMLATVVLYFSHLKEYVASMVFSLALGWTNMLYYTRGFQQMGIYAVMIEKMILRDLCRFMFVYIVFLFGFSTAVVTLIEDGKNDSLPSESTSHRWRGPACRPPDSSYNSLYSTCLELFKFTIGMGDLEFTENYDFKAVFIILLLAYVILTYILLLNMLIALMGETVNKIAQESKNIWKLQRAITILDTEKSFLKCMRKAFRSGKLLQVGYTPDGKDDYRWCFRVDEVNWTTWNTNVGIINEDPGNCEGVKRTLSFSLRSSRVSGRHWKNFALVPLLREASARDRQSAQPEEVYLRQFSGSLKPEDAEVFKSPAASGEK

## C[C@H]1CCCN1c1ncc(-c2cccc(NC(=O)Cn3cnc4c3c(=O)n(C)c(=O)n4C)n2)cn1 [Formula (Ia)]
hTRPV1
  Fold Selectivity Compared to TRPA1: >100 Fold
Healthy male volunteers
  safety signals: no safety signals seen that were attributable to the compound
hTRPM8
  Fold Selectivity Compared to TRPA1: ~200 Fold
hTRPV4
  Fold Selectivity Compared to TRPA1: ~170 Fold
[1]
  effect on cold allodynia: has an analgesic effect on cold allodynia
dTRPA1
  IC50: ~100 nM
hERG
  Fold Selectivity Compared to TRPA1: >100 Fold
